# Reference: PubChem BioAssay AID2060508 (Molecular Pharmacology Branch, DTP, NCI, 2025)
# pIC50: −log10 of the molar value.
# Test system: 454973-116-R2-J3-PDC spheroids, viability, % test/control
# Assay: Anticancer human tumor 454973-116-R2-J3-PDC patient-derived pancreatic carcinoma cell line growth inhibition [GQUAD]
# Conditions: spheroids with HUVEC and MSC; for pIC50: curve of first compound; for viability, T/C: stronger effect = lower value
# Method in brief: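 Viability of tumor cells grown as complex spheroids with endothelial and stromal cells, exposed to drug combinations. Top concentration at or near clinical Cmax (else 10 microM), diluted in half-log increments.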
# [1] = second compound 0.0316 µM, first compound 0.0316 µM
# [2] = second compound 0.0316 µM, first compound 0.1 µM
# [3] = second compound 0.0316 µM, first compound 0.316 µM
# [4] = second compound 0.0316 µM, first compound 1 µM
# [5] = second compound 0.0316 µM, first compound 3.16 µM
# [6] = second compound 0.0316 µM, first compound 10 µM
# [7] = second compound 0.1 µM, first compound 0.0316 µM
# [8] = second compound 0.1 µM, first compound 0.1 µM
# [9] = second compound 0.1 µM, first compound 0.316 µM
# [10] = second compound 0.1 µM, first compound 1 µM
# [11] = second compound 0.1 µM, first compound 3.16 µM
# [12] = second compound 0.1 µM, first compound 10 µM
# [13] = second compound 0.316 µM, first compound 0.0316 µM
# [14] = second compound 0.316 µM, first compound 0.1 µM
# [15] = second compound 0.316 µM, first compound 0.316 µM
# [16] = second compound 0.316 µM, first compound 1 µM
# [17] = second compound 0.316 µM, first compound 3.16 µM
# [18] = second compound 0.316 µM, first compound 10 µM
# [19] = second compound 1 µM, first compound 0.0316 µM
# [20] = second compound 1 µM, first compound 0.1 µM
# [21] = second compound 1 µM, first compound 0.316 µM
# [22] = second compound 1 µM, first compound 1 µM
# [23] = second compound 1 µM, first compound 3.16 µM
# [24] = second compound 1 µM, first compound 10 µM
# [25] = second compound 3.16 µM, first compound 0.0316 µM
# [26] = second compound 3.16 µM, first compound 0.1 µM
# [27] = second compound 3.16 µM, first compound 0.316 µM
# [28] = second compound 3.16 µM, first compound 1 µM
# [29] = second compound 3.16 µM, first compound 3.16 µM
# [30] = second compound 3.16 µM, first compound 10 µM
# [31] = second compound 10 µM, first compound 0.0316 µM
# [32] = second compound 10 µM, first compound 0.1 µM
# [33] = second compound 10 µM, first compound 0.316 µM
# [34] = second compound 10 µM, first compound 1 µM
# [35] = second compound 10 µM, first compound 3.16 µM
# [36] = second compound 10 µM, first compound 10 µM
# 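Further: spheroids exposed to compounds for seven days.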
# 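Wherever viability, T/C is given: 100% = DMSO vehicle control viability.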
structure (smiles),measurement,setting,value
CC1COCCN1c1cc(C2(O)CC3CCC(C2)O3)c2cnn(-c3ccn[nH]3)c2n1 (centres undefined) + Cc1[nH]c2ccc(F)cc2c1-c1nc2c3cccnc3c3ncccc3c2[nH]1,pIC50,second compound 0.0316 µM,6.81
same,pIC50,second compound 0.1 µM,6.85
same,pIC50,second compound 0.316 µM,6.79
same,pIC50,second compound 1 µM,6.85
same,pIC50,second compound 3.16 µM,6.84
same,pIC50,second compound 10 µM,6.94
same,"viability, T/C",[1],95.9%
same,"viability, T/C",[2],62.1%
same,"viability, T/C",[3],29.9%
same,"viability, T/C",[4],21.7%
same,"viability, T/C",[5],24.1%
same,"viability, T/C",[6],12.3%
same,"viability, T/C",[7],87%
same,"viability, T/C",[8],58.9%
same,"viability, T/C",[9],28.9%
same,"viability, T/C",[10],21.3%
same,"viability, T/C",[11],21.8%
same,"viability, T/C",[12],10.4%
same,"viability, T/C",[13],91.6%
same,"viability, T/C",[14],66.4%
same,"viability, T/C",[15],27.7%
same,"viability, T/C",[16],20%
same,"viability, T/C",[17],21.6%
same,"viability, T/C",[18],13.5%
same,"viability, T/C",[19],93.5%
same,"viability, T/C",[20],58.1%
same,"viability, T/C",[21],30.6%
same,"viability, T/C",[22],19.9%
same,"viability, T/C",[23],21.8%
same,"viability, T/C",[24],13.2%
same,"viability, T/C",[25],88.5%
same,"viability, T/C",[26],58.3%
same,"viability, T/C",[27],31.7%
same,"viability, T/C",[28],21.8%
same,"viability, T/C",[29],21.6%
same,"viability, T/C",[30],12.6%
same,"viability, T/C",[31],79.5%
same,"viability, T/C",[32],53.6%
same,"viability, T/C",[33],26.2%
same,"viability, T/C",[34],22.4%
same,"viability, T/C",[35],20.3%
same,"viability, T/C",[36],12.6%
CC1COCCN1c1cc(C2(S(C)(=N)=O)CC2)nc(-c2ccnc3[nH]ccc23)n1 (centres undefined) + Cc1cnc(CNC(=O)c2c(=O)c3ccc(N4CCCN(C)CC4)nc3n3c2sc2ccccc23)cn1,pIC50,second compound 0.0316 µM,5.59
same,pIC50,second compound 0.1 µM,5.85
same,pIC50,second compound 0.316 µM,6.02
same,pIC50,second compound 1 µM,5.83
same,pIC50,second compound 3.16 µM,5.97
same,pIC50,second compound 10 µM,> 7.50
same,"viability, T/C",[1],104%
same,"viability, T/C",[2],95.5%
same,"viability, T/C",[3],96.6%
same,"viability, T/C",[4],79.2%
same,"viability, T/C",[5],43.2%
same,"viability, T/C",[6],21.6%
same,"viability, T/C",[7],90.9%
same,"viability, T/C",[8],81.9%
same,"viability, T/C",[9],74.2%
same,"viability, T/C",[10],58.9%
same,"viability, T/C",[11],33%
same,"viability, T/C",[12],23.5%
same,"viability, T/C",[13],70.8%
same,"viability, T/C",[14],73%
same,"viability, T/C",[15],64.6%
same,"viability, T/C",[16],50.5%
same,"viability, T/C",[17],30.3%
same,"viability, T/C",[18],27.8%
same,"viability, T/C",[19],62.9%
same,"viability, T/C",[20],67.2%
same,"viability, T/C",[21],70%
same,"viability, T/C",[22],56.6%
same,"viability, T/C",[23],36.1%
same,"viability, T/C",[24],38%
same,"viability, T/C",[25],65.9%
same,"viability, T/C",[26],66.1%
same,"viability, T/C",[27],59.4%
same,"viability, T/C",[28],46.9%
same,"viability, T/C",[29],42%
same,"viability, T/C",[30],38.4%
same,"viability, T/C",[31],0.26%
same,"viability, T/C",[32],0.49%
same,"viability, T/C",[33],0.34%
same,"viability, T/C",[34],0.88%
same,"viability, T/C",[35],0.61%
same,"viability, T/C",[36],0.35%
